# Test results as given in patent US20170058314A1, “NOVEL METHODOLOGY FOR IDENTIFYING ANTI-PERSISTER ACTIVITY AND ANTIMICROBIAL SUSCEPTIBILITY FOR BORRELIA BURGDORFERI AND OTHER BACTERIA” (priority 2014, published 2017).
# Experiments:
# [1] = system: stationary phase B. burgdorferi persisters (strain B31); experiment: SYBR Green I/PI viability assay (plate reader), FDA-approved drug library screen
# [2] = system: B. burgdorferi (growing, strain B31); conditions: actively growing B. burgdorferi; Feng, Wang, Shi, et al., 2014; cited from earlier work
# [3] = system: B. burgdorferi (growing, strain B31); experiment: MIC determination, standard microdilution method; format: cell-based, Borrelia burgdorferi; conditions: Borreliella burgdorferi; growing B. burgdorferi; read-out: MIC
# [4] = system: log phase and stationary phase B. burgdorferi culture; experiment: Antibiotic exposure assay, SYBR Green I/PI (drugs alone and combinations)
# Method: To qualitatively determine the effect of antibiotics, 10 μL of each compound from the pre-diluted plate or pre-diluted stock was added to stationary phase B. burgdorferi culture in the 96-well plate. The final volume per well was adjusted to 100 μL at a concentration of 10 μg/mL for each antibiotic. Plates were sealed and placed in a 33° C. incubator for 7 days. The SYBR Green I/PI viability assay was used to assess the live and dead cells after antibiotic exposure as described (Feng, Wang, Shi, et al., 2014). Briefly, 10 μL of SYBR Green I (10,000×stock, Invitrogen) was mixed with 30 μL propidium iodide (PI, 20 mM) into 1.0 mL of sterile dH2O. Then, 10 μL of staining mixture was added to each well and mixed thoroughly. The plates were incubated at room temperature in the dark for 15 minutes followed by plate reading at excitation wavelength at 485 nm and the fluorescence intensity at 535 nm (green emission) and 635 nm (red emission) in microplate reader (HTS 7000 plus Bio Assay Reader, PerkinElmer Inc., USA). With least-square fitting analysis, the regression equation and regression curve of the relationship between percentage of live bacteria and green/red fluorescence ratios was obtained. The regression equation was used to calculate the percentage of live cells in each well of the 96-well plate.
# To qualitatively determine the effect of antibiotics, 10 μL of each compound (final concentration 50 μM) from the pre-diluted plate or pre-diluted stock was added to round body form or stationary phase B. burgdorferi culture in the 96-well plate. The final volume per well was adjusted to 100 μL. Plates were sealed and placed in a 33° C. incubator for 7 days. The SYBR Green I/PI viability assay was used to assess the live and dead cells after antibiotic exposure as described (Feng, Wang, Shi, et al., 2014). Briefly, 10 μL of SYBR Green I (10,000×stock, Invitrogen) was mixed with 30 μL propidium iodide (PI, 20 mM, Sigma-Aldrich) into 1.0 mL of sterile dH2O. Then, 10 μL staining mixture was added to each well and mixed thoroughly. The plates were incubated at room temperature in the dark for 15 minutes followed by plate reading at excitation wavelength at 485 nm and the fluorescence intensity at 535 nm (green emission) and 635 nm (red emission) in microplate reader (HTS 7000 plus Bio Assay Reader, PerkinElmer Inc., USA). With least-square fitting analysis, the regression equation and regression curve of the relationship between percentage of live and dead bacteria as shown in green/red fluorescence ratios was obtained. The regression equation was used to calculate the percentage of live cells in each well of the 96-well plate.
# Round body form and ten day old stationary phase (in brackets) B. burgdorferi culture was treated with 10 μg/mL drugs or their combinations for 7 days. Residual viable B. burgdorferi was calculated according to the regression equation and ratio of Green/Red fluorescence obtained by SYBR Green I/PI assay as described (Feng, Wang, Shi, et al., 2014). Direct microscopy counting was employed to rectify the results of the SYBR Green I/PI assay. […] Abbreviation: Dox, doxcycline; CefP, cefoperazone; DAP, daptomycin; CefM, cefmetazole; Scp, sulfachlorpyridazine; Art, artemisinin; Nft, nitrofurantoin.
# [5] = system: stationary phase B. burgdorferi; experiment: Subculture test of drug-treated stationary phase B. burgdorferi; format: cell-based, Borrelia burgdorferi
# Method: Seven-day-old B. burgdorferi culture (1×10^7 spirochetes/mL) (500 μL) was treated with drugs or drug combinations in Eppendorf tubes. After incubation at 33° C. for 7 days without shaking, the cells were collected by centrifugation and rinsed with 1 mL fresh BSK-H medium followed by resuspension in 500 μL fresh BSK-H medium without antibiotics. Then 50 μL of cell suspension was transferred to 1 mL fresh BSK-H medium for subculture at 33° C. for 2 weeks. Cell proliferation was assessed using SYBR Green I/PI assay and bacterial counting chamber (Hausser Scientific Partnership) by microscopy as described above.
# [6] = system: stationary phase B. burgdorferi persisters (strain B31); experiment: NCI compound library screen, SYBR Green I/PI assay (plate reader); conditions: Borreliella burgdorferi, 168 h
# [7] = system: stationary phase B. burgdorferi persisters (strain B31); experiment: epifluorescence microscope counting after SYBR Green I/PI staining, FDA drug screen; conditions: Borreliella burgdorferi, 168 h, read-out: Residual viable cells (epifluorescence microscope counting)
# [8] = system: round body form of B. burgdorferi; experiment: Subculture test of drug-treated round body form
# Method: For induction of round body form of B. burgdorferi, B. burgdorferi spirochetes (1×10^5 spirochetes/mL) were cultured in BKS-H medium for 6 days without shaking. After the 6-day incubation, amoxicillin at a final concentration of 50 μg/mL was added to the culture for round body form induction. After 72 h induction at 33° C., the round body forms of B. burgdorferi were examined by the microscopy. The round body cells (100 μL) were transferred to 96-well tissue culture microplates for evaluation of the effects of antibiotic treatment.
# [9] = system: stationary phase B. burgdorferi persisters (strain B31); experiment: NCI compound library rescreen, epifluorescence microscope counting; conditions: Borreliella burgdorferi, 168 h
# [10] = system: round body form of B. burgdorferi; experiment: SYBR Green I/PI assay on amoxicillin-induced round body form
# [11] = 50 μM, 7 days, stationary phase
# [12] = 10 μg/mL drugs or combinations, 7 days
# [13] = 10 μg/mL, 7 days treatment, then subculture
structure (smiles),measurement,setting,value
CCCCCCCCCC(=O)N[C@@H](Cc1c[nH]c2ccccc12)C(=O)N[C@H](CC(N)=O)C(=O)N[C@@H](CC(=O)O)C(=O)N[C@@H]1C(=O)NCC(=O)N[C@@H](CCCN)C(=O)N[C@@H](CC(=O)O)C(=O)N[C@H](C)C(=O)N[C@@H](CC(=O)O)C(=O)NCC(=O)N[C@H](CO)C(=O)N[C@@H]([C@H](C)CC(=O)O)C(=O)N[C@@H](CC(=O)c2ccccc2N)C(=O)O[C@@H]1C [Daptomycin],"Ratio of Green/Red fluorescence, Primary screening",[1]; [11],6.10
same,"Ratio of Green/Red fluorescence, Rescreening (first column)",[1]; [11],6.20
same,"Ratio of Green/Red fluorescence, Rescreening (second column)",[1]; [11],6.09
same,viability at 50 µM,"[1]; Borreliella burgdorferi, 168 h, read-out: Residual viable cells (regression equation, SYBR Green I/PI assay)",28%
same,MIC (previous study),[2],12.5 to 25 mg/L
same,MIC,[3],12.5 to 25 mg/L
same,"Live cell %, ten day old stationary phase culture (in brackets)",[4]; [12],48%
same,Live Cell % (residual viable B. burgdorferi),"[4]; Borrelia burgdorferi, 7 days, 10 μg/mL",52%
same,viability at 10 µg/mL,"[4]; Borreliella burgdorferi, 168 h, read-out: Live Cell % (residual viable B. burgdorferi), ten-day-old stationary phase culture enriched with micro-colonies, 10 μg/mL each drug, 7 days",48%
same,G/R ratio immediately after treatment,"[5]; 10 μg/mL, 7 days",5.85
same,G/R ratio after 7 day subculture,[5]; [13],7.01
same,G/R ratio after 15 day subculture,[5]; [13],7.11
same,Spirochetes after 7 day subculture (microscope counting),[5]; [13],3.1 × 10^6
same,Spirochetes after 15 day subculture (microscope counting),[5]; [13],5 × 10^6
same,viability at 10 µg/mL,"[5]; Borreliella burgdorferi, 168 h, read-out: Residual viable cells (epifluorescence microscope counting)",55%
same,viability at 20 µM,"[6]; read-out: Residual viable cells (%) 20 μM (SYBR Green I/PI assay), 20 μM, seven day old stationary phase, 7 days",32%
same,viability at 50 µM,"[6]; read-out: Residual viable cells (SYBR Green I/PI assay), 50 μM, seven day old stationary phase culture, 7 days",23%
same,viability at 50 µM,[7],35%
same,Spirochetes number After 10 day subculture,[8]; [13],5 × 10^5
same,Spirochetes number After 20 day subculture,[8]; [13],5 × 10^6
same,viability at 10 µg/mL,"[8]; Borreliella burgdorferi, 168 h, read-out: Residual viable cells",18%
same,viability at 50 µM,[9]; read-out: Activity against persisters (residual viable cell percentage),18%
same,viability at 20 µM,[9]; read-out: Residual viable cells (%) 20 μM (epifluorescence microscope counting),25%
same,viability at 50 µM,[9]; read-out: Residual viable cells (%) 50 μM (epifluorescence microscope counting),18%
same,viability at 50 µM,[9]; read-out: Residual viable cells (epifluorescence microscope counting),18%
same,"Live cell %, round body form",[10]; [12],17%
same,viability at 50 µM,"[10]; Borreliella burgdorferi, 168 h, read-out: Residual viable cells (SYBR Green I/PI assay)",19%
same,"Ratios of green/red fluorescence, Primary screening","[10]; round body form, 50 μM, 7 days",5.90
same,"Ratios of green/red fluorescence, Rescreening (first column)","[10]; round body form, 50 μM, 7 days",6.09
same,"Ratios of green/red fluorescence, Rescreening (second column)","[10]; round body form, 50 μM, 7 days",5.93
